Publication PMC5883364 (Malaria Journal, 2018)
Like-named read-outs stand apart in the source and are kept apart here.

Legend:
[1] = test system: P. falciparum 3D7 (chloroquine and mefloquine sensitive); experiment: SYBR Green I assay, IC50, strain 3D7; assay type: cell-based, Plasmodium falciparum; details: Plasmodium falciparum, 3D7, read-out: P. falciparum IC50 ± SD, 3D7
Experimental: (§1) Staging and parasitaemia were determined by light microscopy of Giemsa-stained thin blood smears. Anti-malarial activity was determined using the SYBR Green I assay, as previously described.

[2] = test system: P. falciparum Dd2 (chloroquine-resistant, mefloquine-resistant); experiment: SYBR Green I assay, IC50, strain Dd2; assay type: cell-based, Plasmodium falciparum
Experimental: as §1

[3] = test system: P. falciparum IPC5202 (artemisinin-resistant, K13 R539T); experiment: SYBR Green I assay, IC50, strain IPC5202; assay type: cell-based, Plasmodium falciparum; details: for Resistance Index RIb = IC50 (IPC5202)/IC50 (3D7): IPC5202 vs 3D7; for IC50: Plasmodium falciparum, read-out: P. falciparum IC50 ± SD, IPC5202, strain IPC5202
Experimental: as §1

Plasmodium berghei NK65 = experiment: Peters' 4-day suppressive test in Swiss albino mice; assay type: in vivo; details: for inhibition in vivo at 50 mg/kg/day: Plasmodium berghei; for inhibition in vivo at 50 mg/kg/day / Mean parasitaemia ± SD, Day 5 / Mean parasitaemia ± SD, Day 7 / Mean parasitaemia ± SD, Day 10: mice
Experimental: In vivo tests were performed following the Guidelines for Ethical Conduct in The Care and Use of Animals of the Federal University of Rio Grande do Norte—Brazil (CEUA/UFRN/46/2013). Evaluation of anti-malarial activity in vivo was carried out using the Peters’ 4-day suppressive test, with modifications, as previously described. Swiss albino mice were infected with Plasmodium berghei NK65 and randomly allocated to groups of five animals. Animals were treated with 50 mg/kg/day of each of the tested compounds (dissolved in PBS containing 1% DMSO), administrated orally, for four consecutive days. The control group was treated with a solution of PBS/1% DMSO. On days 5 (D5), 7 (D7) and 10 (D10) after parasite inoculation, tail blood smears were Giemsa-stained and examined microscopically to estimate parasitaemia. Acute toxicity testing was carried out to determine adverse effects due to compounds (including weight loss, hair appearance, skin wounds and behavioural changes), and recorded daily.

[4] = test system: V79 (Chinese hamster lung) cells; details: for LD50 V79: Chinese hamster, 24 h; for Selectivity index LD50 (V79)/IC50 (3D7): V79 vs 3D7; for Selectivity index LD50 (V79)/IC50 (Dd2): V79 vs Dd2; for Selectivity index LD50 (V79)/IC50 (IPC4912): V79 vs IPC4912; for Selectivity index LD50 (V79)/IC50 (IPC5202): V79 vs IPC5202
Experimental: (§2) Cytotoxicity was assessed on the mammalian cell lines HepG2-A16 (human hepatoma) and V79 (Chinese hamster lung), using a MTT based assay, as previously described. […] V79 and HepG2 cell lines were incubated for 24 and 48 h, respectively (media changed at 24 h intervals). Absorbance was read at 570 nm on a multi-mode microplate reader (Triad, Dynex Technologies), to produce a log dose-dependence curve. The LD50 value for each compound was estimated by non-linear interpolation of the dose-dependence curve (GraphPad Software).

[5] = test system: HepG2-A16 (human hepatoma) cells; details: for Selectivity index LD50 (HepG2)/IC50 (3D7): HepG2 vs 3D7; for Selectivity index LD50 (HepG2)/IC50 (Dd2): HepG2 vs Dd2; for Selectivity index LD50 (HepG2)/IC50 (IPC4912): HepG2 vs IPC4912; for Selectivity index LD50 (HepG2)/IC50 (IPC5202): HepG2 vs IPC5202; for LD50 HepG2: human, 48 h
Experimental: as §2

[6] = test system: P. falciparum IPC4912 (artemisinin-resistant, K13 I543T); experiment: SYBR Green I assay, IC50, strain IPC4912; assay type: cell-based, Plasmodium falciparum; details: for Resistance Index RIc = IC50 (IPC4912)/IC50 (3D7): IPC4912 vs 3D7; for IC50: Plasmodium falciparum, read-out: P. falciparum IC50 ± SD, IPC4912
Experimental: Staging and parasitaemia were determined by light microscopy of Giemsa-stained thin blood smears. Anti-malarial activity was determined using the SYBR Green I assay, as previously described. Briefly, early ring stage parasites (> 80% of rings) were challenged with a 1:3 serial dilution of each compound, in concentrations ranging from 10,000–0.169 nM. Fluorescence intensity was measured with a multi-mode microplate reader (Triad, Dynex Technologies), with excitation and emission wavelengths of 485 and 535 nm, respectively, and analysed by nonlinear regression using GraphPad Prism to determine IC50 values.

[7] = 120 h, 50 mg/kg/day oral for 4 days, day 5, vs control group, read-out: % inhibition of parasite growth, Day 5 (converted)
[8] = 168 h, 50 mg/kg/day oral for 4 days, day 7, vs control group, read-out: % inhibition of parasite growth, Day 7 (converted)
[9] = 240 h, 50 mg/kg/day oral for 4 days, day 10, vs control group, read-out: % inhibition of parasite growth, Day 10 (converted)
[10] = 50 mg/kg/day oral for 4 days, day 5

Compound	IC50 [1]	Resistance Index RIb = IC50 (IPC5202)/IC50 (3D7) [3]	IC50 [3]	inhibition in vivo at 50 mg/kg/day (Plasmodium berghei NK65; [7])	inhibition in vivo at 50 mg/kg/day (Plasmodium berghei NK65; [8])	inhibition in vivo at 50 mg/kg/day (Plasmodium berghei NK65; [9])	Mean parasitaemia ± SD, Day 5 (Plasmodium berghei NK65; [10])	Mean parasitaemia ± SD, Day 7 (Plasmodium berghei NK65; 50 mg/kg/day oral for 4 days)	Mean parasitaemia ± SD, Day 10 (Plasmodium berghei NK65; 50 mg/kg/day oral for 4 days)	LD50 V79 [4]	Selectivity index LD50 (V79)/IC50 (3D7) [4]	Selectivity index LD50 (V79)/IC50 (Dd2) [4]	Selectivity index LD50 (V79)/IC50 (IPC4912) [4]	Selectivity index LD50 (V79)/IC50 (IPC5202) [4]	Selectivity index LD50 (HepG2)/IC50 (3D7) [5]	Selectivity index LD50 (HepG2)/IC50 (Dd2) [5]	Selectivity index LD50 (HepG2)/IC50 (IPC4912) [5]	Selectivity index LD50 (HepG2)/IC50 (IPC5202) [5]	LD50 HepG2 [5]	Resistance Index RIc = IC50 (IPC4912)/IC50 (3D7) [6]	also measured
CCN(CC)CCCC(C)Nc1ccnc2cc(Cl)ccc12 (stereo not drawn) [CQ, chloroquine, reference compound]	15.8 ± 0.8 nM																				IC50 ([2]; Plasmodium falciparum, DD2, read-out: P. falciparum IC50 ± SD, Dd2, strain Dd2): 340 ± 20.7 nM; IC50 ([2]; read-out: P. falciparum IC50 ± SD, Dd2, strain Dd2): 340 ± 20.7 nM
CCCCNC(=O)C1CCC2(CC1)OOC1(O2)C2CC3CC(C2)CC1C3 (stereo not drawn) [LC92]		1.41	37.7 ± 9.9 nM	98.3%	87%	86.3%	0.02 ± 0.05%	0.46 ± 0.60%	0.77 ± 0.26%	> 1 mM	37453.1	44247.8	28653.3	26525.2	37453.1	44247.8	28653.3	26525.2	1.0 mM	1.31	mice presenting parasitaemia, day 5 (Plasmodium berghei NK65; groups of five mice, 50 mg/kg/day oral, day 5): 5; IC50 [6]: 34.9 ± 7.9 nM
Cn1nnc(N)n1 [LC126II, 2-methyl-2H-tetrazole-5-amine]	> 10000 nM																				IC50 ([2]; Plasmodium falciparum, DD2, read-out: P. falciparum IC50 ± SD, Dd2): > 10000 nM; antiplasmodial activity of building blocks in words ([2]; tested separately, Dd2 and 3D7 (Additional file 1)): devoid of antiplasmodial activity
O=S1(=O)N=C(OCC2CCC3(CC2)OOC2(O3)C3CC4CC(C3)CC2C4)c2ccccc21 (stereo not drawn) [LC129]		0.85	36.4 ± 0.6 nM	87.6%	50.7%	76.7%	0.19 ± 0.12%	1.76 ± 1.36%	1.32 ± 1.24%	> 1 mM	23310.0	23148.1	29673.5	27502.7	23310.0	23148.1	29673.5	27502.7	1.0 mM	0.79	in vivo outcome against P. berghei in words (Plasmodium berghei NK65; 50 mg/kg/day oral for 4 days, followed to day 10): failed to completely suppress it; IC50 [6]: 29.3 ± 0.7 nM
